Test results from patent publication US8552048B2, “Phosphoramidate alkylator prodrugs for the treatment of cancer” (Threshold Pharmaceuticals, Inc., priority 2006, dated 2013).
Entries after “also recorded” stand apart in the source; their conditions may differ.

Key:
[1] = Stability of ethanol formulation of TH302 by HPLC; assay type: physicochemical; conditions: for TH302 (%): 40 μg/mL in ethanol
Procedure: A liquid formulation of TH302 in ethanol was prepared containing 1 mg TH302 in 1 mL of the solution. Aliquots were withdrawn from this formulation and diluted with ethanol to yield a 40 μg/mL formulation of TH302 in ethanol, which was incubated at 20° C. and 37° C. and the stability analyzed by high performance liquid chromatography (HPLC). The HPLC employed the following components and conditions: column (Alltech, Alltima C18, 50×4.6, 3 μm), mobile phase (water and acetonitrile), flow rate 0.8 mL/min, injection volume (10 μL), detection (UV detection at 325 nm and 254 nm), and column temperature (room temperature). The composition of the mobile phase was as tabulated below: […]

[2] = tested on: IGROV1 human ovarian cancer cells; assay: IGROV1 ovarian cancer xenograft; assay type: in vivo; conditions: 75 mg/kg i.v. Q7D×2
Procedure: Forty nude mice were subcutaneously implanted with IGROV1 human ovarian cancer cells (5×10^6 cells/mouse). The tumor volumes were measured twice weekly starting on day 7. On day 8, tumor volumes reached about 97.7±3.9 mm^3. The mice were randomized in 3 treatment groups that were administered the following: CDDP (4 mg/kg, ip, Q7D×2), CDDP (6 mg/kg, i.p. Q7D×2), and TH302 (75 mg/kg, i.v., Q7D×2). A control group of mice were administered saline. […] Forty five days after the first administration of TH302, tumor growth inhibition was 66%. The tumor growth delay (to 300 mm^3) was 19 days.

[3] = tested on: H460 human non small cell cancer (NSCLC) cells; assay: H460 tumor excision clonogenic assay (surviving fraction) under different oxygen levels; assay type: in vivo, mice; conditions: single 50 mg/kg i.v., tumors removed 24 h post treatment
Procedure: H460 human non small cell cancer (NSCLC) cells were prepared in 30% or 50% matrigel in PRIM medium. Then 2×10^6 cells suspended in 50% matrigel were implanted subcutaneously in the right flank in 35 mice (0.2 mL/mouse), 0.5×10^6 cells suspended in 30% matrigel were similarly implanted in 30 mice. Mice bearing similar sized tumors, preferably ˜300 mm^3 were selected for TH302 administration. TH302 was formulated in saline and a single dose administered intravenously at 50 mg/kg.
The mice were placed in 95% and 10% O2 chamber for 30 min before the dosing and returned to the chamber for 2 hours immediately after treatment. Twenty-four hours post treatment, tumors were removed. The tumor tissue was minced and obtain single cells were obtained by digesting the minced tissue with an enzyme cocktail for 15 min at 37° C. with stirring, and filtering through a 40 μm sterile mash. Cell numbers were counted by a coulter counter. After a serial dilution, the ells were placed in a 60 or 100 mm Petri dish and incubated at 37° C. for 8 to 10 days for the colonies to form. The colonies were counted after stained with crystal violet (0.25% in 95% ethanol). The plating efficiency (PE) was calculated by dividing the number of colonies formed by the number of cells seeded. The surviving fraction (SF) was calculated by dividing as the PE of treated cells by PE of the cells from saline control.

[4] = tested on: PC-3 human prostate cells; assay: PC-3 luciferase intracardiac metastasis model (bioluminescence); assay type: in vivo, nude mice
Procedure: Male nude mice were injected into their left ventricle with PC-3 human prostate cells (3×10^6) transfected with the gene for luciferase. The success of the intracardiac transfections was verified by a bioluminescence scan after the injection. On day 14, the mice with established bone tumor burden were randomized into four treatment groups (N=10): Taxotere® alone (20 mg/kg once a week for three weeks, i.v.), TH302 alone (50 mg/kg daily, 5 days a week for 3 weeks), combination treatment with both agents, and vehicle. Bioluminescence imaging was performed under anesthesia using an IVIS 50 optical imaging system.

H460 xenograft tumor = assay: H460 xenograft, TH302 in combination with X-ray radiation; assay type: in vivo, mice; conditions: X-ray 1.2 Gy/day for 5 days with TH302 ip 75 mg/kg per day for 5 days, 30 min after each radiation dose; 75 mg/kg/day
Procedure: H460 xenograft tumor bearing mice were treated with X-ray radiation (one cycle of 1.2 Gy/day for 5 days) alone and in combination with TH302 (administered ip, 75 mg/kg per day for 5 consecutive days 30 min after each radiation dose). […] The oxygen radicals involved in killing tumor cells, and which are generated by irradiation of oxygen e.g. under normoxic conditions, can not form efficiently under hypoxic conditions.

[5] = Repeat dose GLP study with dogs; assay type: in vivo
Description: These changes were reversible.

[6] = Pharmacokinetics in nude mice; assay type: in vivo; conditions: female, mouse, plasma
[7] = Interspecies scaling (complex Dedrick analysis); conditions: 70-kg human
Procedure: Pharmacokinetic studies were performed in male CD-1 (50 mg/kg i.p. or orally (p.o.)) or female nude mice (50 mg/kg i.v. or i.p.), male Sprague-Dawley rats (1, 5, 20 and 50 mg/kg i.v. and 100 mg/kg, p.o.), beagle dogs (20 mg/kg, i.v.) and cynomologus monkeys (20 mg/kg i.v.). Plasma TH302 concentrations were analyzed using a LC/MS method and the pharmacokinetic parameters computed using a noncompartmental method. Interspecies scaling was performed according to standard methods.
Parts A, B, and C, below tabulate the pharmacokinetics of TH302 when administered to rats, Dogs, and monkeys.

[8] = TH302 alone 50 mg/kg daily, 5 days a week for 3 weeks, end of the study (day 43)

## Cn1c(COP(=O)(NCCBr)NCCBr)cnc1[N+](=O)[O-] [TH302]
[1]; 20° C., incubated 0 days
  TH302 (%): 96.97%
[1]; 20° C., incubated 3 days
  TH302 (%): 96.98%
[1]; 20° C., incubated 5 days
  TH302 (%): 96.91%
[1]; 20° C., incubated 7 days
  TH302 (%): 96.96%
[1]; 20° C., incubated 10 days
  TH302 (%): 96.95%
[1]; 20° C., incubated 14 days
  TH302 (%): 96.98%
[1]; 37° C., incubated 0 days
  TH302 (%): 96.97%
[1]; 37° C., incubated 3 days
  TH302 (%): 96.95%
[1]; 37° C., incubated 5 days
  TH302 (%): 96.98%
[1]; 37° C., incubated 7 days
  TH302 (%): 96.98%
[1]; 37° C., incubated 10 days
  TH302 (%): 96.30%
[1]; 37° C., incubated 14 days
  TH302 (%): 96.01%
[1]; 37° C., incubated 24 days
  TH302 (%): 95.46%
[1]; 20° C., under the test conditions
  stability of solution in ethyl alcohol: stable
[2]
  body weight during the treatment period: body weight gain
  tumor growth delay (to 300 mm^3): 19 days
[2]; P<0.05
  growth inhibition (significance): significant growth inhibition
[2]; forty five days after the first administration
  tumor growth inhibition: 66%
[3]; mice breathing 10% O2
  mean surviving fraction (SF): 2.58%
[3]; mice breathing 21% O2
  mean surviving fraction (SF): 5.76%
[3]; mice breathing 95% O2
  mean surviving fraction (SF): 50.38%
[4]; TH302 50 mg/kg daily 5 days a week for 3 weeks, Taxotere 20 mg/kg once a week for three weeks i.v., or both
  toxicities (weight loss, deaths): minimal weight loss; also recorded: no toxicity beyond Taxotere® related toxicities
[4]; [8]
  reduction of bone metastases: 94%
  reduction of soft tissue tumor burden: 95%
H460 xenograft tumor
  effect on anti tumor efficacy of radiation: enhances the anti cancer effect of X-ray; also recorded: enhances the anti tumor efficacy of radiation
[5]; 8 mg/kg dog dose divided by 1.8
  human equivalent dose of the minimally toxic dose: about 4.5 mg/kg
[5]; dog
  minimally toxic dose: 8 mg/kg
[5]; dogs, 16 mg/kg repeat dose
  bone marrow finding at the high dose level: hypocellularity was also reported in the bone marrow
[5]; dogs, 4, 8, and 16 mg/kg repeat dose, particularly at the high dose level
  hematologic findings: leucopenia and neutropenia were evident
[5]; dogs, repeat dose
  reversibility of changes: reversible
[6]; intravenous, 50 mg/kg, read-out: apparent steady-state volume of distribution (Vss)
  Vd: 0.542 L/kg
[6]; intravenous, 50 mg/kg, read-out: total body clearance (Cl) (converted)
  clearance: 72.8 mL/min/kg
[6]; iv, 50 mg/kg i.v.
  half-life: 8.2 min
[6]; po, 50 mg/kg p.o. (so in the source)
  half-life: 9.7 min
[7]
  predicted Cl: 109 L/h
  predicted Vss: 493 L
